Assays:
[1] = test system: KRAS G12V dependent lung adenocarcinoma cell line, NCI-H441; experiment: Cellular pERK (Thr202/Tyr204) FRET/HTRF assay; format: cell-based; conditions: Homo sapiens
In short: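 NCI-H441 cells (KRAS G12V) plated overnight at 37 °C, then exposed to compounds for 1 hr at 37 °C, 5% CO2; DMSO as negative control. Lysates read by Eu-cryptate/d2 sandwich FRET (665 nm) for ERK1/2 phosphorylated at Thr202/Tyr204; IC50 from curve fit.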

[2] = biological target: KRAS (G12D)/CRAF (Homo sapiens (Human), UniProt P01116, G12D); experiment: TR-FRET biochemical KRAS:CRAF protein:protein interaction assay, KRAS (G12D); format: binding; conditions: GMPPNP loaded Biotin-KRAS (G12D), FLAG CRAF RBD; read-out: TR-Fret_PPI KRAS (G12D)/CRAF IC50
Experimental: (§1) The effect of test compounds on KRAS and CRAF protein: protein interaction (PPI) was measured by time resolved fluorescence resonance energy transfer (TR-FRET) Ras binding domain (RBD) assay, which uses a signal generated through fluorescent resonance energy transfer between a donor and an acceptor molecule when in close proximity to each other. Interference from buffer, media, etc. is reduced by dual-wavelength detection; the energy pulse from the excitation source is followed by a time delay, which allows interfering short-lived fluorescence to decay (Degorce et al. 2009).
(§2) The KRAS: CRAF PPI assay can be utilized to identify KRAS ‘ON’ state inhibitors, as the KRAS protein is loaded with GMPPNP (a non-hydrolyzable GTP analog), which represents the active KRAS ‘ON’ state. FLAG-tagged CRAF RBD binding to the GMPPNP loaded biotin-tagged KRAS will result in a fluorescence energy transfer from the donor (Tb-anti-FLAG, emission 620 nm) to the acceptor (SA-XL665, emission 665 nm). Disruption of KRAS and CRAF binding will reduce the TR-FRET signal.
(§3) Test compound was dissolved in DMSO to create a 1 mM stock solution. A 45 μL volume of stock solution was transferred to a 384well polypropylene plate. A 3fold, 10point dilution was performed by transferring 15 μL of test compound solution into 30 μL of DMSO.
(§4) Assay buffer A was prepared with […] Hepes, pH7.3, 0.002% Tween 20, 0.1% BSA, […] NaCl, 5 mM MgCl2, and 10 uM GMP-PNP. 4× KRAS Solution was prepared with 80 nM of Biotin-KRAS (G12D/V), GMPPNP loaded or Biotin-KRAS (WT), GMPPNP loaded protein in assay buffer A. 4× Raf RBD Solution was prepared with 400 nM FLAG CRAF RBD in assay buffer A. 2× Detection Mixture was prepared with 2 nM Tb-anti-FLAG antibody and 10 nM and 10 nM SA-XL665 in assay buffer A.
(§5) A volume of 100 nL of 100× test compound working solution or DMSO vehicle control solution was dispensed to each well (duplicate for each concentration) of a 384-well ProxiPlate Plus assay plate. A volume of 2.5 μL of 4× KRAS Solution was added to each well of the assay plate for a final concentration of 20 nM Biotin-KRAS (G12D/V),GMPPNP loaded or 20 nM Biotin-KRAS (WT), GMPPNP. For low control, add 2.5 μL of assay buffer (no KRAS protein). Pre-incubate assay plate for 30 minutes at room temperature. Following pre-incubation of test compound or DMSO with Biotin-KRAS (G12D/V),GMPPNP loaded or Biotin-KRAS (WT),GMPPNP, a volume of 2.5 μL of 4× FLAG cRAF RBD Solution was added to each well of the assay plate for a final concentration of 100 nM FLAG CRAF RBD. The assay plate was subjected to centrifuge at 1000 rpm for 1 minute and pre-incubate assay plate for 150 minutes at room temperature. Following the pre-incubation with FLAG cRAF RBD, a volume of 5 μl of 2× Detection Mixture was added to each well of the assay plate for a final concentration of 1 nM Tb-anti-FLAG and 5 nM SA-XL665. The assay plate was centrifuged at 1000 rpm for 1 minute and incubated for 90 minutes at room temperature. TR-FRET signal was measured on a BioTek Synergy Neo2 microplate reader (excitation at 340 nm, emission at 665 nn and 620 nm).
(§6) TR-FRET ratios were calculated by dividing the acceptor emission value (665 nm) by the donor emission value (620 nm) for each sample.
(§7) Percent inhibition was calculated by multiplying the normalized TR-FRET ratio by 100, where TR-FRET ratio^HIGH was the TR-FRET ratio obtained from wells with 1% DMSO and complete reaction mixture, TR-FRET ratio^LOW was the ratio obtained from wells with 1% DMSO and reaction mixture without KRAS protein and TR-FRET ratio^SAMPLE was the TR-FRET ratio from wells with test compound and complete reaction mixture. The IC50 values were calculated from normalized TR-FRET ratios with the Levenberg-Marquardt 4 parameter fitting procedure.
(§8) This assay quantifies the interaction of a KRAS mutant protein (e.g., G12V) with the CRAF Ras-binding domain (RBD). […]

[3] = biological target: KRAS (G12V)/CRAF (Homo sapiens (Human), UniProt P01116, G12V); experiment: TR-FRET biochemical KRAS:CRAF protein:protein interaction assay, KRAS (G12V); format: binding; conditions: GMPPNP loaded Biotin-KRAS (G12V), FLAG CRAF RBD; read-out: TR-Fret_PPI KRAS (G12V)/CRAF IC50
Experimental: as §1, §2, §3, §4, §5, §6, §7, §8

[4] = NCI-H441, pERK HTRF, NCI-H441 cells (KRAS G12V)
[5] = NCI-H441, cellular pERK (Thr202/Tyr204) HTRF, NCI-H441 cells
[6] = NCI-H441, cellular pERK HTRF, NCI-H441 (KRAS G12V) cells

Sequence of KRAS (G12V)/CRAF (P01116-2 other isoform, or with tags, fused parts or gaps G12V): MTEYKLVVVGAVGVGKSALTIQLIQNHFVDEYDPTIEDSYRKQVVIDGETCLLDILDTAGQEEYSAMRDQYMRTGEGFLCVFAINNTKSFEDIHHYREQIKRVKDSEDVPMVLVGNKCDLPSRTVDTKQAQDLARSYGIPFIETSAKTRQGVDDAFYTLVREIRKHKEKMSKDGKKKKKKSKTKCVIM
Sequence of KRAS (G12D)/CRAF (P01116-2 other isoform, or with tags, fused parts or gaps G12D): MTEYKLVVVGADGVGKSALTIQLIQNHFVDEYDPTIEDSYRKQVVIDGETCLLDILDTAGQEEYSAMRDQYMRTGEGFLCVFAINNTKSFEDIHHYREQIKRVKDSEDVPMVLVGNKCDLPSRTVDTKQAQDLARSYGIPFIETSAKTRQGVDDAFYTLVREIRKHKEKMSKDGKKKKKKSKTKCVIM

Compound: C#Cc1c(F)ccc2cc(N)cc(-c3ncc4c(N5CCCC[C@H]6C[C@H]65)nc(OC[C@@]56CCCN5C[C@H](F)C6)nc4c3F)c12 [Example 5, 4-(4-((1R,7S)-2-azabicyclo[5.1.0]octan-2-yl)-8-fluoro-2-(((2R,7aS)-2-fluorotetrahydro-1H-pyrrolizin-7a(5H)-yl)methoxy)pyrido[4,3-d]pyrimidin-7-yl)-5-ethynyl-6-fluoronaphthalen-2-amine]
- IC50 [1, 4]: < 50 nM
- IC50 [2]: 24.2 nM
- IC50 [3]: 234 nM

Compound: [2H]C([2H])(Oc1nc(N2CCCC[C@H]3C[C@H]32)c2cnc(-c3cc(N)cc4cc(F)c(F)c(C#C)c34)c(F)c2n1)[C@@]12CCCN1C[C@H](F)C2 [Example 8, 4-(4-((1R,7S)-2-azabicyclo[5.1.0]octan-2-yl)-8-fluoro-2-(((2R,7aS)-2-fluorotetrahydro-1H-pyrrolizin-7a(5H)-yl)methoxy-d2)pyrido[4,3-d]pyrimidin-7-yl)-5-ethynyl-6,7-difluoronaphthalen-2-amine]
- IC50 [1, 4]: < 50 nM
- IC50 [2]: 27.5 nM
- IC50 [3]: 213 nM

Compound: [2H]C([2H])(Oc1nc(N2CCCC[C@H]3[C@@H](F)[C@H]32)c2cnc(-c3cc(N)cc4cc(F)c(F)c(C#C)c34)c(F)c2n1)[C@@]12CCCN1C[C@H](F)C2 [Example 13, 5-Ethynyl-6,7-difluoro-4-(8-fluoro-4-((1S,7R,8R)-8-fluoro-2-azabicyclo[5.1.0]octan-2-yl)-2-(((2R,7aS)-2-fluorotetrahydro-1H-pyrrolizin-7a(5H)-yl)methoxy-d2)pyrido[4,3-d]pyrimidin-7-yl)naphthalen-2-amine]
- IC50 [1, 4]: 50 to 500 nM
- IC50 [2]: 430 nM
- IC50 [3]: 2830 nM

Compound: [2H]C([2H])(Oc1nc(N2CCCC[C@@H]3[C@H](F)[C@@H]32)c2cnc(-c3cc(N)cc4cc(F)c(F)c(C#C)c34)c(F)c2n1)[C@@]12CCCN1C[C@H](F)C2 [Example 14, 5-Ethynyl-6,7-difluoro-4-(8-fluoro-4-((1R,7S,8S)-8-fluoro-2-azabicyclo[5.1.0]octan-2-yl)-2-(((2R,7aS)-2-fluorotetrahydro-1H-pyrrolizin-7a(5H)-yl)methoxy-d2)pyrido[4,3-d]pyrimidin-7-yl)naphthalen-2-amine]
- IC50 [1, 4]: 500 to 10000 nM
- IC50 [2]: ≥ 10000 nM
- IC50 [3]: ≥ 10000 nM

Compound: [2H]C([2H])(Oc1nc(N2CCCC[C@@H]3[C@@H](F)[C@@H]32)c2cnc(-c3cc(N)cc4cc(F)c(F)c(C#C)c34)c(F)c2n1)[C@@]12CCCN1C[C@H](F)C2 [Example 15, 5-Ethynyl-6,7-difluoro-4-(8-fluoro-4-((1R,7S,8R)-8-fluoro-2-azabicyclo[5.1.0]octan-2-yl)-2-(((2R,7aS)-2-fluorotetrahydro-1H-pyrrolizin-7a(5H)-yl)methoxy-d2)pyrido[4,3-d]pyrimidin-7-yl)naphthalen-2-amine]
- IC50 [1, 4]: 500 to 10000 nM
- IC50 [2]: ≥ 10000 nM
- IC50 [3]: ≥ 10000 nM

Compound: [2H]C([2H])(Oc1nc(N2CCOC[C@H]3C[C@H]32)c2cnc(-c3cc(N)cc4cc(F)c(F)c(C#C)c34)c(F)c2n1)[C@@]12CCCN1C[C@H](F)C2 [Example 62, 4-(4-((1R,7S)-5-oxa-2-azabicyclo[5.1.0]octan-2-yl)-8-fluoro-2-(((2R,7aS)-2-fluorotetrahydro-1H-pyrrolizin-7a(5H)-yl)methoxy-d2)pyrido[4,3-d]pyrimidin-7-yl)-5-ethynyl-6,7-difluoronaphthalen-2-amine]
- IC50 [1, 4]: 50 to 500 nM
- IC50 [2]: 62.6 nM
- IC50 [3]: 443 nM

Compound: [2H]C([2H])(Oc1nc(N2CC=CC[C@H]3[C@H](F)[C@H]32)c2cnc(-c3cc(N)cc4cc(F)c(F)c(C#C)c34)c(F)c2n1)[C@@]12CCCN1C[C@H](F)C2 [Example 137, 5-Ethynyl-6,7-difluoro-4-(8-fluoro-4-((1S,7R,8S)-8-fluoro-2-azabicyclo[5.1.0]oct-4-en-2-yl)-2-(((2R,7aS)-2-fluorotetrahydro-1H-pyrrolizin-7a(5H)-yl)methoxy-d2)pyrido[4,3-d]pyrimidin-7-yl)naphthalen-2-amine]
- IC50 [1, 5]: < 50 nM
- IC50 [2]: 27.4 nM
- IC50 [3]: 155 nM

Compound: [2H]C([2H])(Oc1nc(N2CC=CC[C@@H]3[C@@H](F)[C@@H]32)c2cnc(-c3cc(N)cc4cc(F)c(F)c(C#C)c34)c(F)c2n1)[C@@]12CCCN1C[C@H](F)C2 [Example 138, 5-ethynyl-6,7-difluoro-4-(8-fluoro-4-((1R,7S,8R)-8-fluoro-2-azabicyclo[5.1.0]oct-4-en-2-yl)-2-(((2R,7aS)-2-fluorotetrahydro-1H-pyrrolizin-7a(5H)-yl)methoxy-d2)pyrido[4,3-d]pyrimidin-7-yl)naphthalen-2-amine]
- IC50 [1, 5]: 500 to 10000 nM
- IC50 [2]: ≥ 10000 nM
- IC50 [3]: ≥ 10000 nM

Compound: [2H]C([2H])(Oc1nc(N2CCOC[C@@H]3[C@@H](F)[C@@H]32)c2cnc(-c3cc(N)cc4ccc(F)c(C#C)c34)c(F)c2n1)[C@@]12CCCN1C[C@H](F)C2 [Example 221, 5-ethynyl-6-fluoro-4-(8-fluoro-4-((1R,7R,8R)-8-fluoro-5-oxa-2-azabicyclo[5.1.0]octan-2-yl)-2-(((2R,7aS)-2-fluorotetrahydro-1H-pyrrolizin-7a(5H)-yl)methoxy-d2)pyrido[4,3-d]pyrimidin-7-yl)naphthalen-2-amine]
- IC50 [1, 5]: 500 to 10000 nM
- IC50 [2]: > 3000 nM
- IC50 [3]: > 3000 nM

Compound: C#Cc1c(F)ccc2cc(N)cc(-c3ncc4c(N5CCOC[C@H]6[C@H](F)[C@H]65)nc(OCC56CCN5CC(F)(F)C6)nc4c3F)c12 (stereo partly drawn) [Example 476, 4-(2-((3,3-difluoro-1-azabicyclo[3.2.0]heptan-5-yl)methoxy)-8-fluoro-4-((1S,7S,8S)-8-fluoro-5-oxa-2-azabicyclo[5.1.0]octan-2-yl)pyrido[4,3-d]pyrimidin-7-yl)-5-ethynyl-6-fluoronaphthalen-2-amine]
- IC50 [1, 6]: < 50 nM

Compound: C#Cc1c(F)ccc2cc(N)cc(-c3ncc4c(N5CCOC[C@H]6[C@H](F)[C@H]65)nc(OCC5CCC6COCCN65)nc4c3F)c12 (stereo partly drawn) [Example 477, 5-ethynyl-6-fluoro-4-(8-fluoro-4-((1S,7S,8S)-8-fluoro-5-oxa-2-azabicyclo[5.1.0]octan-2-yl)-2-((hexahydro-1H-pyrrolo[2,1-c][1,4]oxazin-6-yl)methoxy)pyrido[4,3-d]pyrimidin-7-yl)naphthalen-2-amine]
- IC50 [1, 6]: < 50 nM

Reference: patent US20250282799A1, “SUBSTITUTED PYRIDO[4,3-d]PYRIMIDINES AS KRAS MODULATORS” (Alterome Therapeutics, Inc., priority 2023, published 2025)
